Seven compounds from patent US12606556B2, “TYK-2 inhibitor” (BEIGENE, LTD., priority 2020, dated 2026) can be followed below.

Test [1] deals with JAK1/p-STAT3(Tyr705) activated by IL-6 in TF-1 cell line. The test can be described thus: IL-6-JAK1/p-STAT3(Tyr705) inhibition cellular assay. The class given is cell-based. The following applies: Homo sapiens, read-out: Cellular assay pSTAT3/IL-6 IC50.
In test [2] the target is T1, JAK1-JH2 protein (aa 561-860, in-house) (Homo sapiens, UniProt P23458).
T1 construct: JAK1-JH2 protein (aa 561-860, in-house); made in house
Kind of test: JAK1-JH2 biochemical assay (HTRF, blocking of JAK1-JH2 protein with its probe). It counts as binding. The following applies: 1.17 nM recombinant JAK1-JH2, Probe 2. The method, boiled down: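 HTRF probe-displacement assay using recombinant human JAK1 pseudokinase domain (aa 561-860, 1.17 nM in pre-incubation step), pre-incubated 0.5 h at room temperature with 10-dose 5-fold compound series. Buffer: 20 mM HEPES pH 7.5, 10 mM MgCl2, 0.005% BSA, 2 mM DTT, 0.015% Brij-35. IC50 by four-parameter logistic fit of 615/665 nm ratio.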
(In general: In TR-FRET formats the signal depends on donor and acceptor labels being close together.)

Test [3] has as its target T2, TYK2-JH2 (aa 575-869, in-house) protein (Homo sapiens, UniProt P29597).
T2 construct: TYK2-JH2 (aa 575-869, in-house) protein; made in house
The test can be described thus: TYK2-JH2 biochemical assay (HTRF, blocking of TYK2-JH2 protein with its probe). It counts as binding. The following applies: for IC50: HTRF, 0.2 nM recombinant TYK2-JH2, Probe 1; for Biochemical assay Selectivity fold (TYK2/JAK1): TYK2-JH2 vs JAK1-JH2 biochemical IC50. Summed up: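 Recombinant TYK2-JH2 (0.2 nM) pre-incubated with compounds (10 doses, 5-fold dilutions) 0.5 h at RT in HEPES pH 7.5 buffer with MgCl2, BSA, DTT, Brij-35; biotinylated probe (10 nM working solution, KD=10 nM) plus anti-6His Tb cryptate/streptavidin-XL665 added, 1 h RT. HTRF ratio read; IC50 from four-parameter logistic fit.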

For test [4], the system named is JAK2, TYK2/p-STAT4 (Tyr693) activated by IL-12 in NK-92 cell line. Kind of test: IL-12-JAK2, TYK2/p-STAT4 (Tyr693) inhibition cellular assay. It counts as cell-based. The following applies: for IC50: NK92, 0.5 h, read-out: Cellular assay pSTAT4/IL-12 IC50; for Cellular assay Selectivity fold (TYK2/JAK1): pSTAT4/IL-12 vs pSTAT3/IL-6 cellular IC50. The method, boiled down: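 NK-92 cells were starved overnight without IL-2 and seeded at 5×10^4 per well in 1640 medium with 0.1% BSA. Lysate p-STAT4 (Tyr693) was measured by AlphaLISA SureFire, and IC50 was fitted with a 4-parameter logistic model.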

Where [5] appears, read: 0.5 h, TF-1 cells, IL-6 50 ng/ml, 30 min.
The mark [6] stands for this setting: NK-92 cells, IL-12 40 ng/ml, 30 min.

Where two headings read alike, the source gives them in different places.

T1 sequence (P23458 561-860): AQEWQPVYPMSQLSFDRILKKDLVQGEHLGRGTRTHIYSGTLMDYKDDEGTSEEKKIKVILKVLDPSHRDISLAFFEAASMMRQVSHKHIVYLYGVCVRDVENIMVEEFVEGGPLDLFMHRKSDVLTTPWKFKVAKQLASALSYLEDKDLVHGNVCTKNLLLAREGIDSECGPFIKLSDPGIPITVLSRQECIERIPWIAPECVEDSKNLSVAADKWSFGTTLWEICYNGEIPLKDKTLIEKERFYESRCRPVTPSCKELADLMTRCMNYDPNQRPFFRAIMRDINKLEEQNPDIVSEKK
T2 sequence (P29597 575-869): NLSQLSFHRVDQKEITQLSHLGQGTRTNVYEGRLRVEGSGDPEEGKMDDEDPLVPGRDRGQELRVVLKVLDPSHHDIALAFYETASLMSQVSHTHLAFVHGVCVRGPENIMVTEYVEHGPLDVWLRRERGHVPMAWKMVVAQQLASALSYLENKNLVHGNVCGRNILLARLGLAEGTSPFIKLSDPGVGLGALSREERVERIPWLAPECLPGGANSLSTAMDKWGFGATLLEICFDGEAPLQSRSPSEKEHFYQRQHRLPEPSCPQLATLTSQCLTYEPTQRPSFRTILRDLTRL

As to `CNC(=O)c1nnc(NC(=O)C2CC2)cc1Nc1nc2ccc(C3CN(C(=O)c4ncn(C)n4)C3)cn2n1` [Example L5, 6-(cyclopropanecarboxamido)-N-methyl-4-((6-(1-(1-methyl-1H-1,2,4-triazole-3-carbonyl)azetidin-3-yl)-[1,2,4]triazolo[1,5-a]pyridin-2-yl)amino)pyridazine-3-carboxamide], the IC50 was above 10000 nM in test [1] (setting [5]), 1.7 nM in test [2], 0.076 nM in test [3] and 2000 nM in test [4] (setting [6]). Moreover, the “Biochemical assay Selectivity fold (TYK2/JAK1)” value in test [3] turned out to be 22 fold. Besides, the “Cellular assay Selectivity fold (TYK2/JAK1)” value in test [4] was above 5 fold.

In the case of `CNC(=O)c1nnc(NC(=O)C2CC2)cc1Nc1nc2ccc(C3CN(C(=O)N4CCOCC4)C3)cn2n1` [Example L6, 6-(cyclopropanecarboxamido)-N-methyl-4-((6-(1-(morpholine-4-carbonyl)azetidin-3-yl)-[1,2,4]triazolo[1,5-a]pyridin-2-yl)amino)pyridazine-3-carboxamide], the IC50 in test [1] (setting [5]) was above 10000 nM; in test [2], 1.5 nM; in test [3], 0.04 nM; in test [4] (setting [6]) it was 86 nM. In addition, in test [3], the “Biochemical assay Selectivity fold (TYK2/JAK1)” value worked out at 38 fold. Further, the “Cellular assay Selectivity fold (TYK2/JAK1)” value in test [4] was above 117 fold.

Consider `CNC(=O)c1nnc(NC(=O)C2CC2)cc1Nc1nc2ccc(C3CN(C)C3)cn2n1` [Example M1, 6-(cyclopropanecarboxamido)-N-methyl-4-((6-(1-methylazetidin-3-yl)-[1,2,4]triazolo[1,5-a]pyridin-2-yl)amino)pyridazine-3-carboxamide], for which the IC50 in test [1] (setting [5]) is above 10000 nM; in test [2], 2.6 nM; in test [3] it was 0.26 nM; in test [4] (setting [6]), 63 nM. Besides, the “Biochemical assay Selectivity fold (TYK2/JAK1)” value in test [3] was 10 fold. The “Cellular assay Selectivity fold (TYK2/JAK1)” value in test [4] was above 158 fold.

`CNC(=O)c1nnc(NC(=O)C2CC2)cc1Nc1nc2c(OC)cc(N3CCC3)cn2n1` [Example N1, 4-((6-(azetidin-1-yl)-8-methoxy-[1,2,4]triazolo[1,5-a]pyridin-2-yl)amino)-6-(cyclopropanecarboxamido)-N-methylpyridazine-3-carboxamide]: the IC50 was above 10000 nM in test [1] (setting [5]), 1.4 nM in test [2], 0.87 nM in test [3] and 687 nM in test [4] (setting [6]). In addition, the “Biochemical assay Selectivity fold (TYK2/JAK1)” value in test [3] is 2 fold. In addition, the “Cellular assay Selectivity fold (TYK2/JAK1)” value in test [4] was above 14 fold.

Consider `CNC(=O)c1nnc(NC(=O)C2CC2)cc1Nc1nc2c(F)cc(N3CCC3)cn2n1` [Example N2, 4-((6-(azetidin-1-yl)-8-fluoro-[1,2,4]triazolo [1,5-a]pyridin-2-yl)amino)-6-(cyclopropanecarboxamido)-N-methylpyridazine-3-carboxamide], for which the IC50 in test [1] (setting [5]) worked out at 9640 nM; in test [2] it was 1.28 nM; in test [3] it was 0.063 nM; in test [4] (setting [6]), 14 nM. Further, the “Biochemical assay Selectivity fold (TYK2/JAK1)” value in test [3] was determined as 20 fold. Moreover, the “Cellular assay Selectivity fold (TYK2/JAK1)” value in test [4] is 688 fold.

Regarding `CNC(=O)c1nnc(NC(=O)C2CC2)cc1Nc1nc2c(C)cc(N3CCC3)cn2n1` [Example N3], the IC50 in test [1] (setting [5]) came to 4100 nM; in test [2] it was 1.47 nM; in test [3], 0.089 nM; in test [4] (setting [6]), 21 nM. Besides, in test [3], the “Biochemical assay Selectivity fold (TYK2/JAK1)” value is 17 fold. In addition, the “Cellular assay Selectivity fold (TYK2/JAK1)” value in test [4] was 192 fold.

Regarding `CNC(=O)c1nnc(NC(=O)C2CC2)cc1Nc1nc2ccc(C(=O)N3CCC3)cn2n1` [Example O1, 4-((6-(azetidine-1-carbonyl)-[1,2,4]triazolo[1,5-a]pyridin-2-yl)amino)-6-(cyclopropanecarboxamido)-N-methylpyridazine-3-carboxamide], the IC50 in test [1] (TF-1, 0.5 h) is 4880 nM; in test [2] it was 1.06 nM; in test [3], 0.17 nM; in test [4] it was 169 nM. Also, in test [3], the “Biochemical assay Selectivity fold (TYK2/JAK1)” value worked out at 6 fold. Also, the “Cellular assay Selectivity fold (TYK2/JAK1)” value in test [4] is given as 28 fold.
